According to US6844020B2, “Solutions of carotenoids for use in foods and personal care products” (Kemin Foods, L.C., priority 2002, dated 2005):
Values joined by “and” are separate entries in the source; they are usually repeats but may differ in a detail not shown here. Equal values may be shown once. Read-outs that look alike come from different tables or passages of the source.

Assays:
[1] = Stability of lutein dry cake in essential oils; type: physicochemical; settings: 20 weeks; for trans lutein dropped: accelerated conditions (40° C.); for lutein lost: ambient (25° C.)
Method: Stability experiments were performed with the best group of essential oils and lutein dry cake. Fresh samples were made, placed in amber vials, blanked with argon and placed onto stability at 25° C. and 40° C. after taking initial % carotenoids and % lutein. Bay, cornmint, peppermint, spearmint, tea tree, pure thyme, red thyme, and white thyme oils were all tested up to 20 weeks. FIGS. 1 and 2 show total carotenoids at ambient and FIGS. 3 and 4 show all trans lutein at ambient conditions. Tea tree oil and bay oil had the best stability of total carotenoids and all trans lutein at ambient conditions. Tea tree lost 32% lutein and pure thyme lost 22% lutein after 20 weeks. It should be noted that the oils were not tested at maximum lutein solubility conditions for stability testing.
FIGS. 5 and 6 show the same set of experiments for total carotenoids at accelerated conditions. FIGS. 7 and 8 show all trans lutein at accelerated conditions. Under accelerated conditions, bay oil, red thyme and pure thyme fared the best for total carotenoids and lutein. Bay oil trans lutein dropped 54% and pure/red thyme oil trans lutein dropped approximately 47% at 20 weeks. It seems the biggest drop occurs during the first 2-week time point then it levels off. All other oils did much worse.

[2] = Lutein solubility in essential oils; type: physicochemical
Method: Lutein dry cake was dissolved in each oil until visibly saturated. The sample was then blanketed with argon and sonicated for ten minutes. If the all the lutein appeared to go into solution, more was added and the process repeated. After the sample was completely saturated, the sample was transferred to a microcentrifuge tube and centrifuged at 14,000 rpm for 10 minutes. If the lutein was not pelleted by centrifugation, the sample was passed through a 0.22 μm filter unit to remove any suspended lutein. The clarified oil was then analyzed for lutein content using UV-VIS and HPLC.
Lutein content was measured by using an analytical method as follows. Using an analytical balance, 10-20 mg of the sample is weighed into a 100 ml volumetric flask. The sample is diluted to the mark with HEAT (10:6:7:7 v:v:v:v hexane:ethanol:acetone:toluene), and the mixture is agitated or stirred until the sample is dissolved. One ml of this solution is transferred by pipette into a 100 ml amber volumetric flask and diluted to the mark with ethanol. The absorbance of the ethanol solution is measured at 446 nm on a UV/Vis spectrophotometer that has previously been zeroed against ethanol. For analysis by HPLC, 1 ml of the ethanol solution is transferred to an HPLC sample vial and dried using a nitrogen or argon gas stream. The dried sample is dissolved in 1 ml of HPLC mobile phase; sonication may be necessary to complete the solution. The HPLC instrument is set with the following parameters: the column is a 25 cm×4.6 mm nitrile bonded Spherisorb with 5 μm particles; 69 minute run time; flow rate of 1.00 ml/min; back pressure of 64 bar; injection volume of 50 μl; solvent of 75:25:0.35:0.1 (v:v:v:v) hexane/methylene chloride/methanol/diisopropylethylamine (all solvents are HPLC grade); detector is a visible lamp set to 446 nm; and temperature is 22° C. Fifty μl of the ethanol solution is injected into the HPLC column. The peaks at approximately 24, 26, 28.5, 32, 34, 40 and 42 minutes (corresponding to 13, 13′-di-cis-lutein, all-trans-lutein, all-trans-zeaxanthin, 9-cis-lutein, 9′-cis-lutein, 13 and 13′-cis -lutein and 9-cis-zeaxanthin) are integrated and used to determine the HPLC percent area for the lutein peak. The following equations were used for the essential oils: [formula] [formula] [formula]
% Lutein=% Carotenoids*(% Total HPLC area of lutein/100)

[3] = consumption of lutein and zeaxanthin; Seddon et al., 1994; cited from earlier work
[4] = cited from earlier work

- trans lutein dropped ([1]; in bay oil): 54%
- lutein lost ([1]; in pure thyme oil): 22%
- trans lutein dropped ([1]; in pure/red thyme oil): approximately 47%
- lutein lost ([1]; in tea tree oil): 32%
- % Lutein ([2]; in Almond oil, NOW Foods 7660): 0.030%
- % Lutein ([2]; in Aloe Vera LQX oil, Lebermuth 50-6010-11, lot Sample): 0.028%
- % Lutein ([2]; in Anise, Spanish oil, Lebermuth 50-6015-11, lot Sample): 0.223%
- % Lutein ([2]; in Apricot Kernel oil, NOW Foods 7665): 0.035%
- % Lutein ([2]; in Bay oil, Lebermuth 50-6025-01, lot BA41-0484): 1% and 1.001%
- % Lutein ([2]; in Bay oil, Lebermuth 50-6025-01, lot Sample): 1.152%
- % Lutein ([2]; in Bay oil, Spectrum Botanical EO6): 1.327%
- % Lutein ([2]; in Bergamot Mint oil, Lebermuth 50-6177-01, lot Sample): 0.325%
- % Lutein ([2]; in Birch, Sweet Southern oil, Lebermuth 50-6035-02, lot Sample): 0.236%
- % Lutein ([2]; in Cassia, redistilled oil, Lebermuth 50-6060-01, lot Sample): 0.639%
- % Lutein ([2]; in Castor oil, NOW Foods 7675): 0.171%
- % Lutein ([2]; in Cedarwood, Texas White oil, Lebermuth 50-6075-01, lot Sample): 0.172%
- % Lutein ([2]; in Cornmint, Redistilled oil, Lebermuth 50-6100-01, lot CR43-0155): 0.951%
- % Lutein ([2]; in Cornmint, Redistilled oil, Lebermuth 50-6100-01, lot Sample): 1.163%
- % Lutein ([2]; in Eucalyptus, 80/85 oil, Lebermuth 50-6105-02, lot Sample): 0.672%
- % Lutein ([2]; in Eugenol, Lebermuth 50-6110-01, lot Sample): 0.517%
- % Lutein ([2]; in Frankincense, Olibanum oil, Lebermuth 50-5100-01, lot Sample): 0.243%
- % Lutein ([2]; in Geranium (Rose), Egyptian oil, Lebermuth 50-6130-11, lot Sample): 0.600%
- % Lutein ([2]; in Grapefruit, White oil, Lebermuth 50-6140-01, lot Sample): 0.071%
- % Lutein ([2]; in Grapeseed oil, NOW Foods 7705): 0.027%
- % Lutein ([2]; in Juniperberry oil, Lebermuth 50-6150-02, lot Sample): 0.140%
- % Lutein ([2]; in Lemon, California oil, Lebermuth 50-6160-01, lot Sample): 0.071%
- % Lutein ([2]; in Lime, distilled oil, Lebermuth 50-6170-01, lot Sample): 0.213%
- % Lutein ([2]; in Nutmeg oil, Lebermuth 50-6190-01, lot Sample): 0.122%
- % Lutein ([2]; in Peppermint oil, Spectrum Botanical EO64): 1.358%
- % Lutein ([2]; in Peppermint, Yakima redistilled oil, Lebermuth 50-6225-21, lot PY43-0157): 0.945%
- % Lutein ([2]; in Peppermint, Yakima redistilled oil, Lebermuth 50-6225-21, lot Sample): 1.010%
- % Lutein ([2]; in Red Thyme Thymus satureioides oil, Spectrum Botanical, item unspecified): 1.0% and 1.084%
- % Lutein ([2]; in Red Thyme Thymus vulgaris oil, Spectrum Botanical EO151): 4.4% and 4.481%
- % Lutein ([2]; in Rosemary, Morrocan oil, Lebermuth 50-6230-03, lot Sample): 0.637%
- % Lutein ([2]; in Sage, Clary oil, Lebermuth 50-6235-03, lot Sample): 0.294%
- % Lutein ([2]; in Spearmint oil, Spectrum Botanical EO76): 1.325%
- % Lutein ([2]; in Spearmint, redistilled oil, Lebermuth 50-6250-11, lot 39SR-0163): 1.124%
- % Lutein ([2]; in Spearmint, redistilled oil, Lebermuth 50-6250-11, lot Sample): 1.001%
- % Lutein ([2]; in Tagetes oil, Lebermuth 50-6261-01, lot Sample): 0.268%
- % Lutein ([2]; in Tea Tree oil, Lebermuth 50-6270-01, lot TX43-0146): 0.877%
- % Lutein ([2]; in Tea Tree oil, NOW Foods 7625): 1.084%
- % Lutein ([2]; in Tea Tree oil, NOW Foods 7625, listed as lutein): about 1%
- % Lutein ([2]; in Tea Tree oil, Spectrum Botanical EO80): 0.942%
- % Lutein ([2]; in Thyme oil, NOW Foods 7635): 3.582%
- % Lutein ([2]; in Thyme oil, NOW Foods 7635, listed as lutein): 2.5%
- % Lutein ([2]; in Thyme, Pure oil, Lebermuth 50-6275-04, lot TP41-0053): 3.453%
- % Lutein ([2]; in Thyme, Red oil, Lebermuth 50-6275-02, lot TR43-0158): 4.753%
- % Lutein ([2]; in Thyme, White oil, Lebermuth 50-6275-01, lot TLC11-T477): 3.0% and 3.095%
- % Lutein ([2]; in White Thyme oil (from private source), item unspecified): 5.068%
- % Lutein ([2]; in White Thyme oil, Spectrum Botanical EO82): 4.9% and 4.903%
- % Lutein ([2]; in Wintergreen, Natural oil, Lebermuth 50-6285-11, lot Sample): 0.226%
- % Lutein ([2]; in Wormwood, Natural oil, Lebermuth 50-6290-01, lot Sample): 0.682%
- lutein solubility ([2]; in citrus oils (white grapefruit, lemon, lime)): 0.071-0.21%
- lutein solubility ([2]; in grapeseed, almond and apricot kernel oils, NOW Foods): 0.02-0.03%
- lutein solubility ([2]; in spearmint oil (text comparison with beta-carotene)): ~1.0%
- lutein solubility ([2]; in thyme oils (red, white, pure)): 3.0-4.7% and 3.5-5% and 3-5%
Compound: CC1=C[C@H](O)CC(C)(C)[C@H]1/C=C/C(C)=C/C=C/C(C)=C/C=C/C=C(C)/C=C/C=C(C)/C=C/C1=C(C)C[C@@H](O)CC1(C)C [Lutein, lutein]
- reduction in age-related macular degeneration [3]: 57%
- reported solubility ([4]; in canola oil): 0.029%
- reported solubility ([4]; in corn oil): 0.042%
- reported solubility ([4]; in safflower oil): 0.033%
- reported solubility ([4]; in soybean oil): 0.032%
